Values of other authors as cited in patent US8410082B2, “Fluorinated diaryl urea derivatives” (Concert Pharmaceuticals, Inc., priority 2009, dated 2013).

Settings: main circulating metabolite of sorafenib in plasma

Question: With `[O-][n+]1ccccc1` [pyridine N-oxide] as the compound, how does the “share of circulating analytes at steady-state” value read?
Answer: 9-16%
